Tests used:
NCI-H1581 = assay: Cell proliferation assay; assay type: cell-based, human; conditions: Homo sapiens, NCI-H1581; 72 h, mean ± SD
Experimental: (§1) The cancer cell lines indicated in Figure 3 were seeded in 96-well plates at a low density in growth medium. The next day, appropriate controls or the designated concentrations of the compounds were added to each well, and the cells were incubated for 72 h. HUVECs (passage 3) were seeded in 96-well plates in growth medium overnight and transferred to serum-free medium for 24 h. The following day, appropriate controls or the designated concentrations of the compounds were added to each well, and 100 ng/mL growth factor (bFGF or VEGF) was added to the indicated wells. The cells were incubated for 48 h. Finally, cell proliferation was determined using a sulforhodamine B (SRB) assay or a cell counting kit-8 (CCK-8) assay. […] IC50 values for proliferation curves were calculated using a 4-parameter logistic nonlinear regression model with SoftMax Pro Software (Molecular Devices, San Jose, USA).

UMUC14 = assay: Cell proliferation assay; assay type: cell-based, human; conditions: Homo sapiens, UMUC14; 72 h, mean ± SD
Experimental: as §1

HUH7 = assay: Cell proliferation assay; assay type: cell-based, human; conditions: Homo sapiens, Huh-7; 72 h, mean ± SD
Experimental: as §1

RT112 = assay: Cell proliferation assay; assay type: cell-based, human; conditions: Homo sapiens, RT-112; 72 h, mean ± SD
Experimental: as §1

OPM2 = assay: Cell proliferation assay; assay type: cell-based, human; conditions: Homo sapiens, OPM-2; 72 h, mean ± SD
Experimental: as §1

SNU16 = assay: Cell proliferation assay; assay type: cell-based, human; conditions: Homo sapiens, SNU-16; 72 h, mean ± SD
Experimental: as §1

KATOIII = assay: Cell proliferation assay; assay type: cell-based, human; conditions: Homo sapiens, KATO III; 72 h, mean ± SD
Experimental: as §1

KG-1 = assay: Cell proliferation assay; assay type: cell-based, human; conditions: Homo sapiens, KG-1; 72 h, mean ± SD
Experimental: as §1

NCI-H716 = assay: Cell proliferation assay; assay type: cell-based, human; conditions: Homo sapiens, NCI-H716; 72 h, mean ± SD
Experimental: as §1

SUM52PE = assay: Cell proliferation assay; assay type: cell-based, human; conditions: Homo sapiens, SUM52PE; 72 h, mean ± SD
Experimental: as §1

PKCη(h) = target: T1, PKCη(h) (Homo sapiens, UniProt P24723); assay: Eurofins kinase panel; assay type: biochemical; conditions: read-out: Inhibition rate (%)
T1 construct: purchased Eurofins (KinaseProfiler)

TSSK4(h) = target: T2, TSSK4(h) (Homo sapiens, UniProt Q6SA08); assay: Eurofins kinase panel; assay type: biochemical; conditions: read-out: Inhibition rate (%)
T2 construct: purchased Eurofins (KinaseProfiler)
T2 sequence (Q6SA08 1-328): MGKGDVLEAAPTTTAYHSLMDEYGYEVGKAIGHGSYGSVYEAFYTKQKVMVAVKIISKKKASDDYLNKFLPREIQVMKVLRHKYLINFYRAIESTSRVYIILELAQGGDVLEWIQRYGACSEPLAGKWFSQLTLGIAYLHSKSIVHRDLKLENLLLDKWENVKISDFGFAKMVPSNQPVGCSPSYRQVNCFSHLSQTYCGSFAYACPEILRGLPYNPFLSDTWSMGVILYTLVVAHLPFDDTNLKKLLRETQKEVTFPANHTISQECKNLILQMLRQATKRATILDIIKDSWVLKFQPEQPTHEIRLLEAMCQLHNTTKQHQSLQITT

SIK2(h) = target: T3, SIK2(h) (Homo sapiens, UniProt Q9H0K1); assay: Eurofins kinase panel; assay type: biochemical; conditions: read-out: Inhibition rate (%)
T3 construct: purchased Eurofins (KinaseProfiler)

[1] = tested on: bFGF-induced primary HUVECs; assay: bFGF-induced HUVEC proliferation (CCK-8); assay type: cell-based, human
[2] = tested on: VEGF-induced primary HUVECs; assay: VEGF-induced HUVEC proliferation (CCK-8); assay type: cell-based; conditions: Homo sapiens, VEGF 100 ng/mL, 48 h
Experimental: Fig. 1 3D185 is a dual FGFR1/2/3 and CSF-1R inhibitor with high selectivity. a Chemical structure of 3D185. […]. H, A broad kinase profile of 3D185 against 372 protein kinases. […]. Representative data from three independent experiments are shown
as §1

PDHK4(h) = target: T4, PDHK4(h) (Homo sapiens, UniProt Q16654); assay: Eurofins kinase panel; assay type: biochemical; conditions: read-out: Inhibition rate (%)
T4 construct: purchased Eurofins (KinaseProfiler)

PKBα(h) = target: T5, PKBα(h) (Homo sapiens, UniProt P31749); assay: Eurofins kinase panel; assay type: biochemical; conditions: read-out: Inhibition rate (%)
T5 construct: purchased Eurofins (KinaseProfiler)

CLK2(h) = target: T6, CLK2(h) (Homo sapiens, UniProt P49760); assay: Eurofins kinase panel; assay type: biochemical; conditions: read-out: Inhibition rate (%)
T6 construct: purchased Eurofins (KinaseProfiler)

HIPK4(h) = target: T7, HIPK4(h) (Homo sapiens, UniProt Q8NE63); assay: Eurofins kinase panel; assay type: biochemical; conditions: read-out: Inhibition rate (%)
T7 construct: purchased Eurofins (KinaseProfiler)
T7 sequence (Q8NE63 1-616): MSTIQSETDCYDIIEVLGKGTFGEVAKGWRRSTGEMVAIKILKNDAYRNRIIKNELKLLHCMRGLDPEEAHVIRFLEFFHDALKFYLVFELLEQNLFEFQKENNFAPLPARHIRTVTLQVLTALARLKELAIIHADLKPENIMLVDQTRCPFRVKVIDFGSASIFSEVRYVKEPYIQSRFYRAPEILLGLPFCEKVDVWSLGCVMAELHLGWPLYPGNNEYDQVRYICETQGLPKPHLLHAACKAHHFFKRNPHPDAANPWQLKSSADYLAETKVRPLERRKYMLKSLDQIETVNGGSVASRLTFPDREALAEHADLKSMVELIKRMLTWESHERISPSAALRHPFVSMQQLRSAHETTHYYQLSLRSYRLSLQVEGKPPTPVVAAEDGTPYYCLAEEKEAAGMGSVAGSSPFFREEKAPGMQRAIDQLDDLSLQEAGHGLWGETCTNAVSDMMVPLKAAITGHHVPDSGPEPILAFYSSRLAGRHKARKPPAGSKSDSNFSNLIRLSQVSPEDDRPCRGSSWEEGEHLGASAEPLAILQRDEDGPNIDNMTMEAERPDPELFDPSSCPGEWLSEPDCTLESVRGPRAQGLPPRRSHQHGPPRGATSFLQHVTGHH

T1 sequence (P24723 whole entry): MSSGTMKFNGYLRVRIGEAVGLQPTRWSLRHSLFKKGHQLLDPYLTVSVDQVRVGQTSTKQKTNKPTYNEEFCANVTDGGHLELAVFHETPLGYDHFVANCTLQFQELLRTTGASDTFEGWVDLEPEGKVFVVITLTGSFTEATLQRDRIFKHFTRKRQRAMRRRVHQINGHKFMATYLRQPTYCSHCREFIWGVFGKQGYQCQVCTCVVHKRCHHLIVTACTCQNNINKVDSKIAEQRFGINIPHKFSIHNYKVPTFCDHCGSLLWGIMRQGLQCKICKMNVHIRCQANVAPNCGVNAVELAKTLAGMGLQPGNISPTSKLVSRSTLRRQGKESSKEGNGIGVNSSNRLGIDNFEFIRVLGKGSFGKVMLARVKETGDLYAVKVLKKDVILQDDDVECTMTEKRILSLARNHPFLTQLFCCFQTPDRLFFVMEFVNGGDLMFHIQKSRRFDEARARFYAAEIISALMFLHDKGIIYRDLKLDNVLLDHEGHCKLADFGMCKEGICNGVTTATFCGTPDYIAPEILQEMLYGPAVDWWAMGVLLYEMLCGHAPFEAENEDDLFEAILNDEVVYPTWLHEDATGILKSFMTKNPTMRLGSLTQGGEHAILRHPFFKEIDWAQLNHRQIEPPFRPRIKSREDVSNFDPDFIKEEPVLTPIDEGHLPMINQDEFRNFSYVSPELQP
T6 sequence (P49760 whole entry): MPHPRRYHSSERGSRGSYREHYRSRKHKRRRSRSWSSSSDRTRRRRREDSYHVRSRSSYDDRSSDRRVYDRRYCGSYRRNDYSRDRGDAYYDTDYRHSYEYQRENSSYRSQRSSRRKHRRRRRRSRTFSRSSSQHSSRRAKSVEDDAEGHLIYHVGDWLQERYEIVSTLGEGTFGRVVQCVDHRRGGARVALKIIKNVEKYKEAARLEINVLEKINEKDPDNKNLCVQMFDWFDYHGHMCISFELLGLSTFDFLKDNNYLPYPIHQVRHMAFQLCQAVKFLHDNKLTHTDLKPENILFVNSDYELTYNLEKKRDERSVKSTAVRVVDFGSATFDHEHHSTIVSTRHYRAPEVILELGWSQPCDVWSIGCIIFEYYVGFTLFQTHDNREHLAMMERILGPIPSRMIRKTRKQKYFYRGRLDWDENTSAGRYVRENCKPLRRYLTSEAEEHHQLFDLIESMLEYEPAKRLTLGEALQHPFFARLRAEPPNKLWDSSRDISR
T5 sequence (P31749 whole entry): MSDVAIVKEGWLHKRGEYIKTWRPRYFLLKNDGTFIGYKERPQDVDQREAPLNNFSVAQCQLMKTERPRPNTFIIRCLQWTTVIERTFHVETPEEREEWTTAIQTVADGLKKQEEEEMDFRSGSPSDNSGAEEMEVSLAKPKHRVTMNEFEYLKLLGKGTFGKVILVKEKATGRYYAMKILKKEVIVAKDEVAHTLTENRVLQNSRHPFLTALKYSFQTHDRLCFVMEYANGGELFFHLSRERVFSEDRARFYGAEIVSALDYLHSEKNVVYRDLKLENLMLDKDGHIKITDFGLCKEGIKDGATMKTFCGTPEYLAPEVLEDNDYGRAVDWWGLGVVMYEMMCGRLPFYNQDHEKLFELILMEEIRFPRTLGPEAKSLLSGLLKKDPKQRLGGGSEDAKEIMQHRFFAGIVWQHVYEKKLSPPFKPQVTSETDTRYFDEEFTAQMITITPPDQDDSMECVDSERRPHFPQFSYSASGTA
T4 sequence (Q16654 whole entry): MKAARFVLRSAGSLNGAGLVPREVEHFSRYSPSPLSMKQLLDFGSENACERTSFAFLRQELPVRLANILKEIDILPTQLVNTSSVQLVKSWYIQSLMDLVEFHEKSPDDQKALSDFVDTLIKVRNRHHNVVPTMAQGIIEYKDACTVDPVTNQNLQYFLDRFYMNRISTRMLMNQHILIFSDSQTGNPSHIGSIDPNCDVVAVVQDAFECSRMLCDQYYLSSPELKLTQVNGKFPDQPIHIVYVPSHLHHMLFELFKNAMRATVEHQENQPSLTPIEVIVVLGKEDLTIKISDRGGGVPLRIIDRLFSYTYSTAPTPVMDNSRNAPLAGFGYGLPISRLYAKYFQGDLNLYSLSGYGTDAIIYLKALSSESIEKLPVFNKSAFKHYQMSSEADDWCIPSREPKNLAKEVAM
T3 sequence (Q9H0K1 whole entry): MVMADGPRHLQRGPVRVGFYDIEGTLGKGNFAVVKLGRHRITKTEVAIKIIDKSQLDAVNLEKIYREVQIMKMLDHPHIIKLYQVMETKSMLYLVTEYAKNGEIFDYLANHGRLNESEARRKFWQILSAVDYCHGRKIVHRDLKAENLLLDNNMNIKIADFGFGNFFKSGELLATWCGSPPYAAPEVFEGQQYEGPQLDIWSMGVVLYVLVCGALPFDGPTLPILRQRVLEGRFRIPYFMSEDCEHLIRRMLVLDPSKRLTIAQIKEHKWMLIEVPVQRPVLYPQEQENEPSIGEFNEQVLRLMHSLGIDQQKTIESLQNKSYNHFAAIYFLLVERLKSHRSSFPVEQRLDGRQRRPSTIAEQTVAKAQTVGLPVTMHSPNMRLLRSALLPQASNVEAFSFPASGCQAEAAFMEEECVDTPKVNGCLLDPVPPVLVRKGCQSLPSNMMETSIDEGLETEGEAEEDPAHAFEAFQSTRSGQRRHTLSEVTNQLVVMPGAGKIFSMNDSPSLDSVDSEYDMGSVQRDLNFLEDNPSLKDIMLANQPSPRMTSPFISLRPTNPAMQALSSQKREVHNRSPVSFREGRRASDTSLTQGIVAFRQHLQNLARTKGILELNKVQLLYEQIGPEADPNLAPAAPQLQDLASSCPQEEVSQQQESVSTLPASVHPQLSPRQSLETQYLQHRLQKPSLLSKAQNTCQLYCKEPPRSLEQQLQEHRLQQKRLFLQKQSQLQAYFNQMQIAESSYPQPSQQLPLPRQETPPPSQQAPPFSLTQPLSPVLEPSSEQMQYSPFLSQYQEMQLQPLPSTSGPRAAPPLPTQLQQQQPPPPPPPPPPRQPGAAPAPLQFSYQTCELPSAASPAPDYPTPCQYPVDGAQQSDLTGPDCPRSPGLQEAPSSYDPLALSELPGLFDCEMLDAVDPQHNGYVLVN

SMILES: COc1cc(OC)c(Cl)c(-c2ccc3c(NC(=O)c4ccc(N5CCNC(C)(C)C5)cc4)n[nH]c3n2)c1Cl [3D185]
- IC50 (NCI-H1581): 17.3 ± 5.7 nM
- IC50 (UMUC14): 30.9 ± 5.3 nM
- IC50 (HUH7): 49.8 ± 1.5 nM
- IC50 (RT112): 36.8 ± 6.8 nM
- IC50 (OPM2): 19.2 ± 4.3 nM
- IC50 (SNU16): 0.9 ± 0.1 nM
- IC50 (KATOIII): 11.3 ± 0.2 nM
- IC50 (KG-1): 2 ± 0.4 nM
- IC50 (NCI-H716): 3 ± 0.4 nM
- IC50 (SUM52PE): 2 nM
- inhibition at 0.01 µM (PKCη(h); 10 nM): -10%
- inhibition at 0.1 µM (PKCη(h); 100 nM): -1%
- inhibition at 1 µM (PKCη(h); 1000 nM): -9%
- inhibition at 0.01 µM (TSSK4(h); 10 nM): -6%
- inhibition at 0.1 µM (TSSK4(h); 100 nM): -10%
- inhibition at 1 µM (TSSK4(h); 1000 nM): -9%
- inhibition at 0.01 µM (SIK2(h); 10 nM): 7%
- inhibition at 0.1 µM (SIK2(h); 100 nM): 5%
- inhibition at 1 µM (SIK2(h); 1000 nM): 4%
- IC50 ([1]; Homo sapiens, HUVEC, bFGF 100 ng/mL, 48 h): 0.5 nM
- fold more potent on bFGF-induced than VEGF-induced HUVEC proliferation ([1]; cellular assays): greater than 176 fold
- IC50 [2]: 88.1 nM
- inhibition at 0.01 µM (PDHK4(h); 10 nM): -2%
- inhibition at 0.1 µM (PDHK4(h); 100 nM): -2%
- inhibition at 1 µM (PDHK4(h); 1000 nM): 0%
- inhibition at 0.01 µM (PKBα(h); 10 nM): -6%
- inhibition at 0.1 µM (PKBα(h); 100 nM): -8%
- inhibition at 1 µM (PKBα(h); 1000 nM): -7%
- inhibition at 0.01 µM (CLK2(h); 10 nM): 5%
- inhibition at 0.1 µM (CLK2(h); 100 nM): 3%
- inhibition at 1 µM (CLK2(h); 1000 nM): 7%
- inhibition at 0.01 µM (HIPK4(h); 10 nM): 1%
- inhibition at 0.1 µM (HIPK4(h); 100 nM): -17%
- inhibition at 1 µM (HIPK4(h); 1000 nM): 16%

— PMC6704710, “Preclinical evaluation of 3D185, a novel potent inhibitor of FGFR1/2/3 and CSF-1R, in FGFR-dependent and macrophage-dominant cancer models” (Journal of Experimental & Clinical Cancer Research : CR, 2019)
